How the values were obtained:
[1] = cited from earlier work
tumor = conditions: cited from earlier work
ovarian follicles [2] = assay type: in vivo, female Balb/c mice; conditions: single 75, 100 or 150 mg/kg Cy or 4 weekly 75 mg/kg Cy, AS101 as co-treatment with Cy; for ratio of primary follicles relative to primordial follicles: FIG. 3A; for ratio of secondary follicles relative to primordial follicles: FIG. 3B
Description: (§1) 6 week old female Balb/c mice were divided randomly into 4 groups. The mice in the treatment groups received cyclophosphamide (Cy) with or without co-treatment with AS101. Control mice received injections of phosphate buffer saline (PBS) or AS101. Cy treatment consisted of a single intraperitoneal injection of 75, 100 or 150 mg/kg Cy, or 4 weekly injections of 75 mg/kg Cy. AS101 was injected at a dose of 10 mg/kg every other day starting 1 week prior to Cy administration until 1 week after the last administration of Cy. PBS was injected on the same days as described for AS101.
(§2) Both ovaries were removed 7 days after the last Cy administration treatment, and fixed in 4% paraformaldehyde in PBS. The ovaries were embedded in paraplast and serially sectioned to 5 μm slices, and stained with haematoxylin/eosin. Care was taken to ensure that both ovaries were removed from each mouse in their entirety for histological processing. Primordial, primary and secondary follicles were counted by two blinded examiners who were unaware of the treatments, using a light microscope (AxioImager Z1, Zeiss, Oberkochen, Germany) in bright-field mode using a X20 objective. To avoid counting the same follicle twice, only one section in each set of five consecutive sections was used. The relative distribution of different stages of early follicle growth was then calculated.
(§3) Follicles were classified as primordial follicles (PMF) if they contained an oocyte surrounded by a partial or complete layer of squamous pregranulosa cells without a theca layer. In this species, PMF are located almost exclusively in the ovarian cortex, and they are very small (about 15 μm diameter). The follicular count of each follicle type was then multiplied by 5 to reach a representative of total follicles [Meirow et al., Hum Reprod 1999; 14:1903-1907]. The data from follicular count is presented as the percentage of the count obtained from the PBS-treated control group.
The populations of primary follicles, secondary follicles and primordial follicles (PMF) were characterized following single injections of 75, 100 or 150 mg/kg Cy or 4 weekly injections of 75 mg/kg Cy.

ovarian follicles [3] = assay type: in vivo
Description: Follicular apoptosis was visualized using the TUNEL staining of ovaries from additional group of mice sacrificed at 12, 24 and 48 hours after a single injection of 150 mg/kg Cy.

[4] = cancer patients, AS101 in combination with chemotherapy; cited from earlier work
[5] = tested on: ovarian primordial follicles (PMF); test: Primordial follicle (PMF) counts in ovaries of cyclophosphamide-treated mice; assay type: in vivo, female Balb/c mice; conditions: AS101 10 mg/kg every other day where co-treated; for ovarian PMF count, % of that of the control (PBS) group: ovaries removed 7 days after Cy
Description: as §1, §2, §3
Student's T-test was performed to assess the differences between groups. Statistical significance was determined at p<0.05.

[6] = tested on: anti-Mullerian hormone (AMH); test: Plasma anti-Mullerian hormone (AMH) levels by ELISA; assay type: in vivo, female Balb/c mice; conditions: 4 weekly injections of 75 mg/kg Cy; control (PBS) group 10.7±2.1 ng/ml
Description: as §1
Anti-Mullerian hormone (AMH) levels in the plasma were measured by ELISA techniques according to the manufacturer instruction (DSL, Webster, Tex.).
Mice were administered PBS, AS101, Cy or Cy+AS101 for 4 weeks, as described hereinabove.

SMILES	survival of mice ([1]; mice treated with various cytotoxic drugs or radiation)	protection from hematopoietic damage ([1]; mice, lethal and sublethal doses of chemotherapeutic drugs, including cyclophosphamide)	effect in combination with Cy (tumor; treatment of tumor-bearing mice)	anti-tumoral effect (tumor; variety of tumor models in mice and humans)	ratio of primary follicles relative to primordial follicles (ovarian follicles [2])	ratio of secondary follicles relative to primordial follicles (ovarian follicles [2])	TUNEL staining of ovary, follicle appearance (ovarian follicles [3]; co-therapy with a chemotherapeutic agent and AS101, FIG. 5C)	apoptotic (TUNEL) stain in primordial follicles (ovarian follicles [3]; ovary treated with AS101, FIG. 5B)	severity of neutropenia, thrombocytopenia and alopecia that accompany chemotherapy [4]	apoptotic (TUNEL) staining in granulosa cells of growing follicles (ovarian follicles [3]; 24 hours after a single treatment with 150 mg/kg Cy, FIG. 5A)	PMF count, % of that of the control group ([5]; 75 mg/kg Cy once a week for 4 weeks, ovaries removed 7 days after last Cy)	ovarian PMF count, % of that of the control (PBS) group ([5]; single i.p. injection of 75 mg/kg Cy)	ovarian PMF count, % of that of the control (PBS) group ([5]; single i.p. injection of 100 mg/kg Cy)	ovarian PMF count, % of that of the control (PBS) group ([5]; single i.p. injection of 150 mg/kg Cy)	plasma AMH levels [6] [ng/mL]
Cl[TeH]1(Cl)(Cl)OCCO1 [AS101, ammonium trichloro(dioxyethylene-O,O′)tellurate]	increase the survival of mice	protect mice from hematopoietic damage	synergistic effect with Cy	exhibits an anti-tumoral effect	prevented the Cy-induced increase in these ratios	prevented the Cy-induced increase in these ratios	follicles destroyed by chemotherapy as well as healthy primordial follicles of ovary are observed	no apoptotic stain was detected	significant reduction in the severity						
O=P1(N(CCCl)CCCl)NCCCO1 (centres unmarked) [Cy, cyclophosphamide]					increased the ratio	increased the ratio				extensive apoptotic staining	12.2%±9.5%	52.1%±15.1%	48%±12.6%	38%±22.2%	7.2 ± 1.9

Source: patent US20120035260A1, “TELLURIUM-CONTAINING COMPOUNDS FOR AFFECTING FEMALE'S REPRODUCTIVE SYSTEM FOLLOWING CHEMOTHERAPY AND/OR RADIOTHERAPY” (BIOMAS LTD., priority 2009, published 2012)
